According to PMC9501633, “Synthesis, Characterisation and Mechanism of Action of Anticancer 3-Fluoroazetidin-2-ones” (Pharmaceuticals, 2022):
Where “and” joins values, the source holds several entries; their conditions need not be identical. Equal values may be shown once.

Tests used:
OVCAR-4 = assay: NCI 60 cell line screen, Ovarian; format: cell-based, human
UACC-62 = assay: NCI 60 cell line screen, Melanoma; format: cell-based, human
MDA-MB-435 = assay: NCI 60 cell line screen, Melanoma; format: cell-based, human
TK-10 = assay: NCI 60 cell line screen, Renal; format: cell-based, human
ACHN = assay: NCI 60 cell line screen, Renal; format: cell-based, human; settings: one dose 10 µM
SR = assay: NCI 60 cell line screen, Leukaemia; format: cell-based, human
HCT-116 = assay: NCI 60 cell line screen, Colon; format: cell-based, human
786–0 = assay: NCI 60 cell line screen, Renal; format: cell-based, human
DU-145 = assay: NCI 60 cell line screen, Prostate; format: cell-based, human
SNB-75 = assay: NCI 60 cell line screen, CNS; format: cell-based, human
SF-539 = assay: NCI 60 cell line screen, CNS; format: cell-based, human
UACC-257 = assay: NCI 60 cell line screen, Melanoma; format: cell-based, human
A498 = assay: NCI 60 cell line screen, Renal; format: cell-based, human
MALME-3M = assay: NCI 60 cell line screen, Melanoma; format: cell-based, human
KM12 = assay: NCI 60 cell line screen, Colon; format: cell-based, human
SF-295 = assay: NCI 60 cell line screen, CNS; format: cell-based, human
NCI 60 cell line panel = assay: NCI 60 cell line screen, whole panel; format: cell-based; settings: 5-dose assay, 48 h, mean-graph midpoint
Protocol: The antiproliferative effects of selected compounds 33, 37 and 43 were initially evaluated in the NCI 60 cell line screen at 10 μM concentration (see Supplementary Materials Table S3). […] . […] .
Compound 33 was next selected for evaluation in the NCI 60 cell line five-dose screen. The GI50 (50% growth inhibition), TGI (total growth inhibition) and LC50 (50% lethal concentration) were determined in the NCI panel of 60 cell lines, using the sulphorhodamine B (SRB) protein assay (Table 5). The GI50 value provides the growth inhibition of the selected compound, while the cytotoxic effect is evaluated in the LC50 value. […] . […] . Glioblastoma is an aggressive and fast-growing brain tumour with a median survival time of 9–16 months from diagnosis, and these tumours quickly evolve resistance to temozolomide chemotherapy, which is the only FDA-approved treatment. […] . Further mechanistic and cellular studies were carried out and are described below.
aData obtained from NCI in vitro human tumour cell screen 1 dose assay (10 µM). 33 (NCI

## COc1ccc(C2C(F)C(=O)N2c2cc(OC)c(OC)c(OC)c2)cc1F (stereo not shown) [Compound 33, 3-Fluoro-4-(3-fluoro-4-methoxyphenyl)-1-(3,4,5-trimethoxyphenyl)azetidin-2-one]
OVCAR-4; 5-dose, 48 h
  TGI: >100000 nM
OVCAR-4; Homo sapiens, 5-dose, 48 h
  GI50: 966 nM
OVCAR-4; Homo sapiens, one dose 10 µM
  inhibition at 10 µM: 45.1%
OVCAR-4; one dose 10 µM
  Growth %: 54.92%
UACC-62; 5-dose, 48 h
  TGI: >100000 nM
UACC-62; Homo sapiens, one dose 10 µM
  inhibition at 10 µM: 46.5%
UACC-62; one dose 10 µM
  Growth %: 53.45%
MDA-MB-435; Homo sapiens, 5-dose, 48 h
  GI50: 29.1 nM
MDA-MB-435; Homo sapiens, one dose 10 µM
  inhibition at 10 µM: 99.7%
MDA-MB-435; one dose 10 µM
  Growth %: 0.35%
TK-10; 5-dose, 48 h
  TGI: >100000 nM
TK-10; Homo sapiens, 5-dose, 48 h
  GI50: 38600 nM
TK-10; Homo sapiens, one dose 10 µM
  inhibition at 10 µM: 35.6%
TK-10; one dose 10 µM
  Growth %: 64.4%
ACHN; Homo sapiens
  inhibition at 10 µM: 67.3%
ACHN
  Growth %: 32.67%
SR; 5-dose, 48 h
  TGI: >100000 nM
SR; Homo sapiens, 5-dose, 48 h
  GI50: 40.8 nM
SR; Homo sapiens, one dose 10 µM
  inhibition at 10 µM: 86.7%
SR; one dose 10 µM
  Growth %: 13.28%
HCT-116; 5-dose, 48 h
  TGI: >100000 nM
HCT-116; Homo sapiens, 5-dose, 48 h
  GI50: 32.5 nM
HCT-116; Homo sapiens, one dose 10 µM
  inhibition at 10 µM: 94.4%
HCT-116; one dose 10 µM
  Growth %: 5.59%
786–0; 786-0, one dose 10 µM
  Growth %: 22.92%
786–0; 786–0, 5-dose, 48 h
  TGI: 15100 nM
786–0; Homo sapiens, 786-0, one dose 10 µM
  inhibition at 10 µM: 77.1%
786–0; Homo sapiens, 786–0, 5-dose, 48 h
  GI50: 46.2 nM
DU-145; 5-dose, 48 h
  TGI: >100000 nM
DU-145; Homo sapiens, 5-dose, 48 h
  GI50: 269 nM
DU-145; Homo sapiens, one dose 10 µM
  inhibition at 10 µM: 90.5%
DU-145; one dose 10 µM
  Growth %: 9.46%
SNB-75; 5-dose, 48 h
  TGI: >100000 nM
SNB-75; Homo sapiens, 5-dose, 48 h
  GI50: > 100000 nM
SNB-75; Homo sapiens, one dose 10 µM
  inhibition at 10 µM: 49.1%
SNB-75; one dose 10 µM
  Growth %: 50.89%
SF-539; 5-dose, 48 h
  TGI: 217 nM
SF-539; Homo sapiens, 5-dose, 48 h
  GI50: 28 nM
SF-539; Homo sapiens, one dose 10 µM
  inhibition at 10 µM: 95.8%
SF-539; one dose 10 µM
  Growth %: 4.17%
UACC-257; 5-dose, 48 h
  TGI: >100000 nM
UACC-257; Homo sapiens, 5-dose, 48 h
  GI50: > 100000 nM
UACC-257; Homo sapiens, one dose 10 µM
  inhibition at 10 µM: 61.3%
UACC-257; one dose 10 µM
  Growth %: 38.74%
A498; 5-dose, 48 h
  TGI: 8080 nM
A498; Homo sapiens, 5-dose, 48 h
  GI50: 847 nM
A498; Homo sapiens, one dose 10 µM
  inhibition at 10 µM: 106%
A498; one dose 10 µM
  Growth %: -5.5%
MALME-3M; 5-dose, 48 h
  TGI: >100000 nM
MALME-3M; Homo sapiens, one dose 10 µM
  inhibition at 10 µM: 26%
MALME-3M; one dose 10 µM
  Growth %: 74.02%
KM12; 5-dose, 48 h
  TGI: >100000 nM
KM12; Homo sapiens, 5-dose, 48 h
  GI50: 59.6 nM
KM12; Homo sapiens, one dose 10 µM
  inhibition at 10 µM: 89.3%
KM12; one dose 10 µM
  Growth %: 10.73%
SF-295; 5-dose, 48 h
  TGI: >100000 nM
SF-295; Homo sapiens, 5-dose, 48 h
  GI50: 53.5 nM
SF-295; Homo sapiens, one dose 10 µM
  inhibition at 10 µM: 81.4%
SF-295; one dose 10 µM
  Growth %: 18.61%
NCI 60 cell line panel
  MG-MID TGI: 52480 nM and 52400 nM
NCI 60 cell line panel; read-out: MG-MID GI50
  GI50: 223 nM
